These results are taken from patent publication US8106197B2, “Aminoheteroaryl compounds as protein kinase inhibitors” (Pfizer Inc., priority 2003, dated 2012).

In the test the target is T1, HGFR (Homo sapiens, UniProt P08581).
T1 construct: purchased Upstate 14-526
Put plainly: HGFR continuous-coupled spectrophotometric assay. The note with it: for inhibition at 1 µM: Table 6, percent c-MET inhibition at 1 μM, read-out: % inhibition; for inhibition at 0.05 µM: Table 5, percent c-MET inhibition at 50 nM; for I(%): Table 3, Ki(μM) or I(%), test concentration not given. It is filed as biochemical.

T1 sequence (P08581 974-1390 limits assumed): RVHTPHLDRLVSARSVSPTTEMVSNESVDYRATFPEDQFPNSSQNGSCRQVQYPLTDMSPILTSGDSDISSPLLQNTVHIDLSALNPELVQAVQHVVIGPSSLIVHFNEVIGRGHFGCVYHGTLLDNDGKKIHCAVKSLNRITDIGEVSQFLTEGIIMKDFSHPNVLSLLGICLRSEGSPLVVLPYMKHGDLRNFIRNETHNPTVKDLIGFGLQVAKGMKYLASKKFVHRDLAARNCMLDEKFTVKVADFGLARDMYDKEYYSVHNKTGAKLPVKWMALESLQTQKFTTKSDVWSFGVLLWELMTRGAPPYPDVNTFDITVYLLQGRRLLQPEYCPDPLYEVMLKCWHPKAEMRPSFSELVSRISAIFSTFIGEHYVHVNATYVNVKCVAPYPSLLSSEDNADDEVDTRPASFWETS

With `Nc1ncc(-c2ccc(C(=O)N3CCC(N4CCCC4)CC3)cc2)cc1OCc1ccc(OCc2ccccc2)cc1`, the “% inhibition” value was “% inhibition = 49”. The same measure, in the same setting: the result for `Nc1ncc(-c2ccc(C(=O)N3CCC(N4CCCC4)CC3)cc2)cc1OCc1cc(Cl)ccc1Cl` reads “% inhibition = 26”. One may read the inhibition as how much of the control response was suppressed. As to `CN(C)C(=O)c1cnc(N)c(OCc2c(Cl)cccc2Cl)c1`, the inhibition at 1 µM worked out at 10%. On the same count and under the same terms, the result for `Nc1ncc(C(=O)N2CCN(CC(=O)Nc3ccccn3)CC2)cc1OCc1c(Cl)cccc1Cl` reads 56%. Consider `Nc1ncc(-c2ccc(C(=O)N3CCC(N4CCCC4)CC3)cc2)cc1OCc1cc(-c2c(Cl)cccc2Cl)no1`, for which the “% inhibition” value is listed as “% inhibition = 14”. As for `CC(Oc1cc(-c2ccc(C(=O)NC[C@@H]3CCCC[C@H]3O)cc2)cnc1N)c1c(Cl)ccc(F)c1Cl` (stereo partly shown), at 0.05 µM the inhibition was 67%. Consider `C[C@@H]1CN(C(=O)c2ccc(-c3cnc(N)c(OCc4cccc(F)c4C(F)(F)F)c3)cc2)C[C@H](C)N1` [Example I-619, {4-[6-Amino-5-(3-fluoro-2-trifluoromethyl-benzyloxy)-pyridin-3-yl]-phenyl}-(3,5-dimethyl-piperazin-1-yl)-methanone], for which the “I(%)” value was 16%.

As to `Nc1ncc(-c2ccc(C(=O)N3CCC(N4CCCC4)CC3)cc2)cc1OCc1ncccn1`, the “% inhibition” value was “% inhibition = 9”. Compound `CC(Oc1cc(-c2ccc(C(=O)N3CCCC(O)C3)cc2)cnc1N)c1c(Cl)ccc(F)c1Cl` (stereo not shown) displayed an inhibition at 0.05 µM of 85%. `Nc1ncc(-c2ccc(C(=O)N3CCC(N4CCCC4)CC3)cc2)cc1OCc1ccc(C(=O)NCCc2ccccn2)cc1`: the “% inhibition” value is listed as “% inhibition = 11”. For `Cc1cc2cc(CNC(=O)c3cnc(N)c(OCc4c(Cl)cccc4Cl)c3)ccc2[nH]1`, the inhibition at 1 µM is 20%. As for `Nc1ncc(C(=O)NCCN2CCOCC2)cc1OCc1c(Cl)cccc1Cl`, the inhibition at 1 µM is 31%. As for `Nc1ncc(-c2ccc(C(=O)N3CCC(N4CCCC4)CC3)cc2)cc1OCC1CCCCC1` [Example I-628, [4-(6-Amino-5-cyclohexylmethoxy-pyridin-3-yl)-phenyl]-(4-pyrrolidin-1-yl-piperidin-1-yl)-methanone], the “I(%)” value is reported as 7%. `Nc1ncc(-c2ccc(C(=O)N3CCC(N4CCCC4)CC3)cc2)cc1OCc1cc(F)cc(F)c1`: the “% inhibition” value was “% inhibition = 14”. For `COCOc1ccc(S(=O)(=O)c2ccc(COc3cc(-c4ccc(C(=O)N5CCC(N6CCCC6)CC5)cc4)cnc3N)cc2)cc1`, the “% inhibition” value is “% inhibition = 18”. Consider `Nc1ncc(C(=O)N2CCN(CC(=O)N3CCOCC3)CC2)cc1OCc1c(Cl)cccc1Cl`, for which the inhibition at 1 µM worked out at 31%. Same read-out and setting: the result for `Nc1ncc(C(=O)N2CCCC(C(=O)N3CCOCC3)C2)cc1OCc1c(Cl)cccc1Cl` (stereo not shown) reads 21%. As for `Nc1ncc(-c2ccc(C(=O)N3CCC(N4CCCC4)CC3)cc2)cc1OCc1cc(Br)cc(Br)c1`, the “% inhibition” value is on record as “% inhibition = 45”. With `NC(=O)C1CCN(C(=O)c2cnc(N)c(OCc3c(Cl)cccc3Cl)c2)CC1`, the inhibition at 1 µM was determined as 29%. Regarding `CC(Oc1cc(-c2ccc(C(=O)NC[C@@H](C)O)cc2)cnc1N)c1c(Cl)ccc(F)c1Cl` (stereo partly shown), testing at 0.05 µM gave an inhibition of 79%. With `Nc1ncc(C(=O)N2CCC(O)(CN3CCCC3=O)C2)cc1OCc1c(Cl)cccc1Cl` (stereo not shown), the inhibition at 1 µM was 20%.

`Nc1ncc(-c2ccc(C(=O)N3CCC(N4CCCC4)CC3)cc2)cc1OCc1ccc(F)c(C(F)(F)F)c1`: the “% inhibition” value is recorded as “% inhibition = 13”. The same measure, in the same setting: with `Nc1ncc(-c2ccc(C(=O)N3CCC(N4CCCC4)CC3)cc2)cc1OCc1csc(-c2ccc(Cl)cc2)n1` the entry was “% inhibition = 9”; with `Cc1cccnc1COc1cc(-c2ccc(C(=O)N3CCC(N4CCCC4)CC3)cc2)cnc1N`, “% inhibition = 16”. Take `Nc1ncc(C(=O)NCc2noc(C(=O)N3CCC(CO)CC3)n2)cc1OCc1c(Cl)cccc1Cl`: the inhibition at 1 µM was 26%.

`Cc1noc(COc2cc(-c3ccc(C(=O)N4CCC(N5CCCC5)CC4)cc3)cnc2N)n1`: the “% inhibition” value is “% inhibition = 11”. Compound `CC(O)CCNC(=O)c1ccc(-c2cnc(N)c(OC(C)c3c(Cl)ccc(F)c3Cl)c2)cc1` (stereo not shown) registered an inhibition at 0.05 µM of 77%.

Consider `Nc1ncc(-c2ccc(C(=O)N3CCC(N4CCCC4)CC3)cc2)cc1OCc1cc(F)ccc1F`, for which the “% inhibition” value was “% inhibition = 24”. For `Nc1ncc(C(=O)NC[C@H]2CCCC[C@H]2O)cc1OCc1c(Cl)cccc1Cl`, the inhibition at 1 µM worked out at 24%. Take `CCN1CCCC1CNC(=O)c1cccc(COc2cc(-c3ccc(C(=O)N4CCC(N5CCCC5)CC4)cc3)cnc2N)c1` (stereo not shown): the “% inhibition” value is “% inhibition = 10”.

With `Nc1ncc(C(=O)NCc2ccc[nH]c2=O)cc1OCc1c(Cl)cccc1Cl`, the inhibition at 1 µM worked out at 16%. Regarding `CCc1ccn2cc(COc3cc(-c4ccc(C(=O)N5CCC(N6CCCC6)CC5)cc4)cnc3N)nc2c1`, the “% inhibition” value is “% inhibition = 9”. The same measure, in the same setting: with `COc1cc(COc2cc(-c3ccc(C(=O)N4CCC(N5CCCC5)CC4)cc3)cnc2N)cc(OC)c1OC` the entry was “% inhibition = 10”; with `Nc1ncc(-c2ccc(C(=O)N3CCC(N4CCCC4)CC3)cc2)cc1OCc1nc(N)c2ccccc2n1`, “% inhibition = 15”. Same read-out and setting: with `Nc1ncc(-c2ccc(C(=O)N3CCC(N4CCCC4)CC3)cc2)cc1OCc1cc(F)c(F)cc1F` the entry was “% inhibition = 12”; with `CN(C)c1ccc(NC(=O)c2cccc(COc3cc(-c4ccc(C(=O)N5CCC(N6CCCC6)CC5)cc4)cnc3N)c2)cc1`, “% inhibition = 23”. For `CCOc1ccccc1-c1cnc(N)c(OC(C)c2c(Cl)ccc(F)c2Cl)c1` (stereo not shown) [Example I-555, 3-[1-(2,6-Dichloro-3-fluoro-phenyl)-ethoxy]-5-(2-ethoxy-phenyl)-pyridin-2-ylamine], the “I(%)” value is given as 22%. Regarding `Nc1ncc(-c2ccc(C(=O)N3CCC(N4CCCC4)CC3)cc2)cc1OCc1ccc(C(=O)NC2CCN(Cc3ccccc3)C2)cc1` (stereo not shown), the “% inhibition” value is listed as “% inhibition = 24”. Consider `Nc1ncc(C(=O)N2CCCC(F)(F)C2)cc1OCc1c(Cl)cccc1Cl`, for which the inhibition at 1 µM was 16%. Take `Cn1ccnc1COc1cc(-c2ccc(C(=O)N3CCC(N4CCCC4)CC3)cc2)cnc1N`: the “% inhibition” value is reported as “% inhibition = 14”. Still for that read-out and setting: the result for `CCOC(=O)C1CCN(C(=O)c2ccc(COc3cc(-c4ccc(C(=O)N5CCC(N6CCCC6)CC5)cc4)cnc3N)cc2)CC1` reads “% inhibition = 16”; that for `CC(Oc1nc(-c2ccc(C(=O)N3CCC[C@H]3CN3CCCC3)cc2)cnc1N)c1c(Cl)cccc1Cl` (stereo partly shown), “% inhibition = 14”. As to `CN(C)C(=O)CN1CCN(C(=O)c2cnc(N)c(OCc3c(Cl)cccc3Cl)c2)CC1`, the inhibition at 1 µM was found to be 42%. With `Nc1ncc(-c2ccc(C(=O)N3CCC(N4CCCC4)CC3)cc2)cc1OCc1ccc(-c2ccnc(Br)n2)cc1`, the “% inhibition” value is “% inhibition = 17”.

As to `Cc1ccc(COc2cc(-c3ccc(C(=O)N4CCC(N5CCCC5)CC4)cc3)cnc2N)c(F)c1F`, the “% inhibition” value was “% inhibition = 39”.

As to `Cc1cc(C)c(COc2cc(-c3ccc(C(=O)N4CCC(N5CCCC5)CC4)cc3)cnc2N)c(C)c1` [Example I-653, {4-[6-Amino-5-(2,4,6-trimethyl-benzyloxy)-pyridin-3-yl]-phenyl}-(4-pyrrolidin-1-yl-piperidin-1-yl)-methanone], the “I(%)” value stood at 2%.
